{"source": "patent EP2662079A1", "about": "(Ordway Research Institute, Inc., priority 2012, dated 2013)", "key": {"ERK1/2": {"tested_on": "ERK1/2", "assay": "MAPK activation (nuclear phosphorylated ERK1/2 immunoblot)", "type": "cell-based", "conditions": "for effect on MAPK activation by T4: PD 98059 30 µmol/L or CGP41251 100 nmol/L for 30 minutes, then 10^-7 M T4", "protocol": "ECV304 endothelial cells were cultured in M199 medium with 0.25% hormone-depleted serum 13 for 2 days. […] Nuclear fractions were pre-pared from all samples by the method reported previously (see Li et al., Carcinogenesis 29:62-69 (2008)), the proteins separated by polyacrylamide gel electrophoresis, and transferred to membranes for immunoblotting with antibody to phosphorylated ERK 1/2."}, "[1]": {"tested_on": "chick chorioallantoic membrane (CAM)", "assay": "Chorioallantoic membrane (CAM) model of angiogenesis", "type": "in vivo", "conditions": "for Mean Branch points: n=8", "protocol": "In vivo neovascularization was examined by methods described previously. 9-12 Ten-day-old chick embryos were purchased from SPAFAS (Preston, CT) and incubated at 37°C with 55% relative humidity. A hypodermic needle was used to make a small hole in the shell concealing the air sac, and a second hole was made on the broad side of the egg, directly over an avascular portion of the embryonic membrane that was identified by candling. A false air sac was created beneath the second hole by the application of negative pressure at the first hole, causing the CAM to separate from the shell. A window approximately 1.0 cm^2 was cut in the shell over the dropped CAM with a small-crafts grinding wheel (Dremel, division of Emerson Electric Co.), allowing direct access to the underlying CAM. FGF2 (1µg/mL) was used as a standard proangiogenic agent to induce new blood vessel branches on the CAM of 10-day-old embryos. Sterile disks of No. 1 filter paper (Whatman International) were pretreated with 3 mg/mL cortisone acetate and 1 mmol/L PTU and air dried under sterile conditions. Thyroid hormone, hormone analogs, FGF2 or control solvents, and inhibitors were then applied to the disks and the disks allowed to dry. The disks were then suspended in PBS and placed on growing CAMs. […] At 24 hours, the MAPK cascade inhibitor PD 98059 was also added to CAMs topically by means of the filter disks.\nAfter incubation at 37°C with 55% relative humidity for 3 days, the CAM tissue directly beneath each filter disk was resected from control and treated CAM samples. Tissues were washed 3X with PBS, placed in 35-mm Petri dishes (Nalge Nunc), and examined under an SV6 stereomicroscope (Zeiss) at X50 magnification. Digital images of CAM sections exposed to filters were collected using a 3-charge-coupled device color video camera system (Toshiba) and analyzed with Image-Pro software (Media Cybernetics). The number of vessel branch points contained in a circular region equal to the area of each filter disk were counted. One image was counted in each CAM preparation, and findings from 8 to 10 CAM preparations were analyzed for each treatment condition (thyroid hormone or analogs, FGF2, FGF2 antibody, PD 98059). In addition, each experiment was performed 3 times. The resulting angiogenesis index is the mean ± SEM of new branch points."}, "[2]": {"tested_on": "transplantable liver tumor", "conditions": "PTU alone; cited from earlier work"}, "glioblastoma (GBM)": {"tested_on": "glioblastoma (GBM)", "conditions": "mild hypothyroidism induced by PTU; cited from earlier work"}, "Matrigel plugs": {"tested_on": "Matrigel plugs", "assay": "Mouse Matrigel model of angiogenesis (plug hemoglobin)", "type": "in vivo, mice (C57BL/6NCr)", "conditions": "for Inhibition of FGF induced angiogenesis (grade): mouse matrigel model", "protocol": "Normal male mice (C57BL/6NCr) 6-8 weeks of age and weighing ~20 g were purchased from Taconic farm. Animals were housed 4 per cage, in controlled conditions of temperature (20-24 °C); humidity (60-70%) and 12 hrs. light/dark cycle provided with food and water ad libitum. […] Matrigel (BD Bioscience, San Jose CA) was thawed overnight at 4 °C and placed on ice. Aliquots of matrigel were placed into cold polypropylene tubes to prevent the matrigel from solidifying and the angiogenesis promoter added to matrigel with or without agonist. Mice were treated daily. Matrigel was subcutaneously injected as triple injection per animal at 100 µL/animal. At day 14 post plug implant all animals were killed in CO2 chamber and matrigel plugs were collected. […]\nThe matrigel plugs dissected from the mice were carefully stripped of any remaining peritoneum. The plugs were placed into 0.5 mL tube of ddH2O and homogenized for 5-10 min. […] Absorbance was read with a Microplate Manager ELISA reader at 540 nm. […] Hemoglobin concentration is a reflection of the number of blood vessels in the plugs."}, "ECV304 endothelial cells": {"tested_on": "ECV304 endothelial cells", "assay": "FGF2 release from ECV304 endothelial cells (ELISA)", "type": "cell-based", "protocol": "ECV304 endothelial cells were cultured in M199 medium supplemented with 10% fetal bovine serum. […] After 72 hours, the supernatants were harvested and assays for FGF performed without dilution using a commercial ELISA system (R&D Systems) (See Davis et al., Circ Res 94:1500-1506 (2004))."}, "FGF2 cDNA": {"tested_on": "FGF2 cDNA", "assay": "RT-PCR of FGF2 in ECV304 cells", "type": "cell-based", "conditions": "T4 10^-7 mol/L for 6 to 48 hours", "protocol": "RNA (1 µg) was subjected to reverse transcription-polymerase chain reaction (RT-PCR) using the Access RT-PCR system (Promega). Total RNA was reverse transcribed into cDNA at 48°C for 45 minutes, then denatured at 94°C for 2 minutes. Second-strand synthesis and PCR amplification were performed for 40 cycles with denaturation at 94°C for 30 s, annealing at 60°C for 60 s, and extension at 68°C for 120 s, with final ex-tension for 7 minutes at 68°C after completion of all cycles. PCR primers for FGF2 were as follows: FGF2 sense strand 5'-[…]-3' (SEQ ID NO:1), antisense strand 5' […]-3' (SEQ ID NO:2); the length of the PCR product was 734 bp. Primers for GAPDH included the sense strand 5'-[…]-3' (SEQ ID NO:3), and antisense strand 5'-[…]-3' (SEQ ID NO:4); the length of the PCR product was 218 bp. […] The target bands of the gel were quantified using LabImage software (Kapelan), and the value for [FGF2/GAPDH]X10 calculated for each time point."}, "[3]": {"conditions": "cited from earlier work"}, "[4]": {"conditions": "CAM model, FGF (1.25 µg/ml) + compound at 10 µg/plug"}, "[5]": {"conditions": "FGF 100 ng + compound 10 µg/plug, n= 7-14"}}, "note": "Several values for one entry are separate records, joined by “and”; a condition that tells them apart may be missing. Equal entries are not always repeated.", "data": [{"smiles": "CO[C@@H]1[C@H](N(C)C(=O)c2ccccc2)C[C@H]2O[C@]1(C)n1c3ccccc3c3c4c(c5c6ccccc6n2c5c31)C(=O)NC4", "note": "[CGP41251]", "values": [{"measurement": "effect on MAPK activation by T4", "setting": "ERK1/2", "result": "blocked"}]}, {"smiles": "COc1cccc(-c2cc(=O)c3ccccc3o2)c1N", "note": "[PD 98059]", "values": [{"measurement": "effect on blood vessel branching caused by T3 and T4", "setting": "[1]; 3 µmol/L PD 98059", "result": "completely blocked"}, {"measurement": "effect on MAPK activation by T4", "setting": "ERK1/2", "result": "inhibited"}]}, {"smiles": "CCCc1cc(=O)[nH]c(=S)[nH]1", "note": "[PTU, 6-N-propyl-2-thiouracil]", "values": [{"measurement": "growth rate versus control neoplasms", "setting": "[2]", "result": "no difference in growth rate"}, {"measurement": "improvement of the duration of survival", "setting": "glioblastoma (GBM)", "result": 3, "unit": "fold"}]}, {"smiles": "CNC(Cc1cc(I)c(Oc2cc(I)c(O)c(I)c2)c(I)c1)C(=O)[O-].O.O.[K+]", "note": "(centres unmarked) [T4 analog 10, Potassium 3-[4-(4-hydroxy-3,5-diiodophenoxy)-3,5-diiodophenyl]-2-(methylamino)propanoate dihydrate]", "values": [{"measurement": "Hemoglobin (mg/mL)± SEM", "setting": "Matrigel plugs; 10 µg/matrigel plug, n= 6-7", "result": "0.8 ± 0.2", "unit": "mg/mL"}]}, {"smiles": "CCNC(Cc1cc(I)c(Oc2cc(I)c(O)c(I)c2)c(I)c1)C(=O)O", "note": "(centres unmarked) [T4 analog 11, 2-(Ethylamino)-3-[4-(4-hydroxy-3,5-diiodophenoxy)-3,5-diiodophenyl]propanoic acid]", "values": [{"measurement": "Mean % of stimulation (comparing to PBS)", "setting": "[1]; CAM model, 0.1 µM", "result": "86.3 ± 9.4", "unit": "%"}, {"measurement": "Mean Branch points", "setting": "[1]; CAM model, 0.1 µM, mean ± SEM", "result": "136± 12.8"}, {"measurement": "Mean stimulation of angiogenesis (%)", "setting": "Matrigel plugs; 10 µg/matrigel plug", "result": "45±33", "unit": "%"}, {"measurement": "Hemoglobin (mg/mL)± SEM", "setting": "Matrigel plugs; 10 µg/matrigel plug, n= 6-7", "result": "0.6 ± 0.2", "unit": "mg/mL"}]}, {"smiles": "CC(C)(C)OC(=O)NC(Cc1cc(I)c(Oc2cc(I)c(OCC3CO3)c(I)c2)c(I)c1)C(=O)OCC1CO1", "note": "(centres unmarked) [T4 analog 14, Oxiran-2-ylmethyl-2-(tert-butoxycarbonylamino)-3-(4-(3,5-diiodo-4-(oxiran-2-ylmethoxy)phenoxy)-3,5-diiodophenyl)propanoate]", "values": [{"measurement": "Hemoglobin (mg/mL)± SEM", "setting": "Matrigel plugs; 10 µg/matrigel plug, n= 6-7", "result": "0.3 ± 0.1", "unit": "mg/mL"}]}, {"smiles": "N[C@@H](Cc1cc(I)c(Oc2cc(I)c(O)c(I)c2)c(I)c1)C(=O)O", "note": "[T4, L-thyroxine]", "values": [{"measurement": "generation of new blood vessels from existing vessels promoted", "setting": "[1]; 10^7-10-^9 M", "result": "two- to three-fold"}, {"measurement": "Branch pts ± SEM", "setting": "[1]; CAM assay before conjugation, 0.1 µM", "result": "137.3 ± 8.8"}, {"measurement": "increase in angiogenesis", "setting": "[1]; CAM model, 3 experiments (Figure 5A)", "result": 1.5, "unit": "fold"}, {"measurement": "Mean % of stimulation (comparing to PBS)", "setting": "[1]; CAM model, 0.1 µM", "result": "87.7 ± 7", "unit": "%"}, {"measurement": "Mean Branch points", "setting": "[1]; CAM model, 0.1 µM, mean ± SEM", "result": "137± 8"}, {"measurement": "ANGIOGENESIS INDEX", "setting": "[1]; CAM model, 0.1uM, n = 8 per group", "result": "143.8 ± 7.9"}, {"measurement": "increase in blood vessel branch formation", "setting": "[1]; T4 0.1 µmol/L for 3 days", "result": "2.5 fold and 2.3 fold"}, {"measurement": "increase of FGF2 concentration in the medium", "setting": "ECV304 endothelial cells; T4 (0.1 µmol/L) or T3 (0.01 µmol/L) for 3 days", "result": 1.4, "unit": "fold"}, {"measurement": "FGF2 (pg/mL/10^6 cells)", "setting": "ECV304 endothelial cells; T4 (0.1 µmol/L), 3 days", "result": "39.2 ±2.8", "unit": "pg/mL/10^6 cells"}, {"measurement": "appearance of phosphorylated ERK1/2 in cell nuclei", "setting": "ERK1/2; T4 10^-7 mol/L", "result": "≤ 15", "unit": "min"}, {"measurement": "increase in abundance of FGF2 cDNA, corrected for GAPDH content", "setting": "FGF2 cDNA", "result": "apparent by 6 hours"}, {"measurement": "Hemoglobin (mg/mL)± SEM", "setting": "Matrigel plugs; T4 (0.1 µM)", "result": "0.9 ± 0.2", "unit": "mg/mL"}, {"measurement": "Mean stimulation of angiogenesis (%)", "setting": "Matrigel plugs; T4 (0.1 µM)", "result": "100±22", "unit": "%"}, {"measurement": "Hemoglobin (mg/mL)± SEM", "setting": "Matrigel plugs; T4 alone, 10 µg/matrigcl plug, n= 25", "result": "1.2 ± 0.4", "unit": "mg/mL"}, {"measurement": "pKa of the COOH (carboxylic acid) group", "setting": "[3]", "result": "~2.0"}, {"measurement": "pKa of the NH2 (amino) group", "setting": "[3]", "result": "approximately 9.0"}, {"measurement": "pKa of the PhOH (phenol) group", "setting": "[3]; fluorescent quenching", "result": 6.2}]}, {"smiles": "CC(C)(C)OC(=O)Cc1cc(I)c(Oc2cc(I)c(O)c(I)c2)c(I)c1", "note": "[Tetrac analog 3, tert-Butyl-2-(4-(4-hydroxy-3,5-diiodophenoxy)-3,5-diiodophenyl)acetate]", "values": [{"measurement": "Mean % Inhibition", "setting": "[1]; [4]", "result": "88±13", "unit": "%"}, {"measurement": "Mean Branch points", "setting": "[1]; [4]", "result": "79±7"}, {"measurement": "Hemoglobin (mg/mL)± SEM", "setting": "Matrigel plugs; [5]", "result": "0.4 ± 0.1", "unit": "mg/mL"}, {"measurement": "Inhibition of FGF induced angiogenesis (grade)", "setting": "Matrigel plugs", "result": "strong (compounds were considered to be strong inhibitors if they achieved more than 50% inhibition as compared to the control)"}]}, {"smiles": "O=C(Cc1cc(I)c(Oc2cc(I)c(O)c(I)c2)c(I)c1)NC1CCCCC1", "note": "[Tetrac analog 4, N-cyclohexyl-2-(4-(4-hydroxy-3.5-diiodophenoxy)-3,5-diiodophenyl)acetamide]", "values": [{"measurement": "Hemoglobin (mg/mL)± SEM", "setting": "Matrigel plugs; [5]", "result": "0.2 ± 0.1", "unit": "mg/mL"}, {"measurement": "Inhibition of FGF induced angiogenesis (grade)", "setting": "Matrigel plugs", "result": "strong (compounds were considered to be strong inhibitors if they achieved more than 50% inhibition as compared to the control)"}]}, {"smiles": "CC(C)[Si](OC(=O)Cc1cc(I)c(Oc2cc(I)c(O)c(I)c2)c(I)c1)(C(C)C)C(C)C", "note": "[Tetrac analog 5, Triisopropylsilyl-2-(4-(4-hydroxy-3,5-diiodophenoxy)-3,5-diiodophenyl)acetate]", "values": [{"measurement": "Hemoglobin (mg/mL)± SEM", "setting": "Matrigel plugs; [5]", "result": "0.2 ± 0.1", "unit": "mg/mL"}, {"measurement": "Inhibition of FGF induced angiogenesis (grade)", "setting": "Matrigel plugs", "result": "strong (compounds were considered to be strong inhibitors if they achieved more than 50% inhibition as compared to the control)"}]}, {"smiles": "O=C(Cc1cc(I)c(Oc2cc(I)c(OCC3CO3)c(I)c2)c(I)c1)NC1CCCCC1", "note": "(centres unmarked) [Tetrac analog 6, N-cyclohexyl-2-(4-(3,5-diiodo-4-(oxiran-2-ylmethoxy)phenoxy)-3,5-diiodophenyl)acetamide]", "values": [{"measurement": "Hemoglobin (mg/mL)± SEM", "setting": "Matrigel plugs; [5]", "result": "0.7 ± 0.1", "unit": "mg/mL"}, {"measurement": "Inhibition of FGF induced angiogenesis (grade)", "setting": "Matrigel plugs", "result": "strong (compounds were considered to be strong inhibitors if they achieved more than 50% inhibition as compared to the control)"}]}]}
